From ChEMBL document CHEMBL1153933, “Selective inhibition of Pfmrk, a Plasmodium falciparum CDK, by antimalarial 1,3-diaryl-2-propenones” (Bioorg Med Chem Lett, 2009)

Columns and labels:
[1] = tested on: Plasmodium falciparum; assay: Antimalarial activity after 24 hrs against chloroquine-sensitive Plasmodium falciparum D6 by [3H]hypoxanthine uptake; format: functional, organism-based
[2] = Inhibition of His6x-tagged Plasmodium falciparum PfPK5 expressed in Escherichia coli by microtiter plate scintillation counting
[3] = tested on: Plasmodium falciparum; assay: Antimalarial activity after 24 hrs against chloroquine-resistant Plasmodium falciparum W2 by [3H]hypoxanthine uptake; format: functional, organism-based
[4] = biological target: T1, Protein kinase Pfmrk (Plasmodium falciparum, UniProt P90584); assay: Inhibition of His6x-tagged Plasmodium falciparum Pfmrk expressed in Escherichia coli by microtiter plate scintillation counting
T1 sequence (P90584 whole entry): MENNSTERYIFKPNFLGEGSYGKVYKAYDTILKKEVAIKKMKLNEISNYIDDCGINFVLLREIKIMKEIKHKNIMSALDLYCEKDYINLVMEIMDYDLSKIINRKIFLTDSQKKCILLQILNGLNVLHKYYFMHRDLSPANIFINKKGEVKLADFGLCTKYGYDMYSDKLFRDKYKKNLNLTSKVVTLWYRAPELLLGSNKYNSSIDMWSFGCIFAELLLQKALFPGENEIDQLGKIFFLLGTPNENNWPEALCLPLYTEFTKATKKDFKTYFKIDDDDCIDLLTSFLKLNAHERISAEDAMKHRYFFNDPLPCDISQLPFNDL

Structure (SMILES) | IC50 [1] | IC50 [2] | IC50 [3] | IC50 [4]
COc1ccc(C(=O)/C=C/c2ccccn2)c(OC)c1OC | 2.5 µM | > 100 µM | 2.3 µM | 34 µM
C/C(=C\C(=O)c1cccc([N+](=O)[O-])c1)c1cccc([N+](=O)[O-])c1 | 8.3 µM | > 256 µM | 8.2 µM | > 256 µM
COc1ccc(C(=O)/C=C/c2ccc3ccccc3c2)c(OC)c1OC | – | > 100 µM | – | 19 µM
COc1ccc(C(=O)/C=C/c2cccc3ccccc23)c(OC)c1OC | – | > 100 µM | – | 50 µM
O=C(/C=C/c1ccccn1)c1ccccc1 [WR-190433] | – | > 382 µM | – | 22 µM
COc1ccc(C(=O)/C=C/c2ccccn2)cc1 | 7.1 µM | > 100 µM | 10.5 µM | 12 µM
COc1ccc(C(=O)/C=C/c2ccc3ccccc3c2)c(OC)c1 | – | – | – | 100 µM
O=C(/C=C/c1ccc([N+](=O)[O-])cc1)c1cccc([N+](=O)[O-])c1 | > 16.8 µM | > 268 µM | > 16.8 µM | 268 µM
COc1ccc(C(=O)/C=C/c2cccc3ccccc23)c(OC)c1 | – | > 100 µM | – | 1.3 µM
CC(=O)Nc1ccc(C(=O)/C=C/c2ccccc2)cc1 | 10.9 µM | > 302 µM | 9.9 µM | –
COc1ccc(C(=O)/C=C/c2cccc3ccccc23)cc1 | – | > 100 µM | – | > 100 µM
O=C(/C=C/c1ccccn1)c1cccc([N+](=O)[O-])c1 | 11 µM | > 315 µM | > 19.7 µM | 18 µM
N#Cc1ccc(C(=O)/C=C/c2ccc(Cl)cc2)cc1 | > 18.2 µM | > 299 µM | 10.5 µM | > 100 µM
CCOC(=O)/C(=C\c1ccccn1)C(=O)c1cccc([N+](=O)[O-])c1 | – | 123 µM | – | 61 µM
Cc1ccc(C(=O)/C=C/c2ccccc2)cc1 | 11.7 µM | > 360 µM | 11.5 µM | 20 µM
COc1ccc(C(=O)/C=C/c2ccncc2)c(OC)c1OC | 2.8 µM | > 100 µM | 3.2 µM | 9 µM
COc1ccc(C(=O)/C=C/c2cccnc2)c(OC)c1OC | 3.2 µM | > 100 µM | 3.9 µM | 38 µM
COc1ccc(C(=O)/C=C/c2ccncc2)cc1 | 12 µM | 100 µM | 12.2 µM | 8.2 µM
O=C(/C=C/c1ccccc1)c1cccc([N+](=O)[O-])c1 | > 19.8 µM | > 316 µM | > 19.8 µM | –
